Reference: ChEMBL document CHEMBL4043063, “Anti-tuberculosis activity and structure-activity relationships of oxygenated tricyclic carbazole alkaloids and synthetic derivatives” (Bioorg Med Chem, 2017)
≈ marks a conversion by molar mass, not a printed value.

Tests used:
[1] = test system: Mycobacterium tuberculosis; experiment: Antitubercular activity against Mycobacterium tuberculosis H37Rv by microplate alamar blue assay; format: functional
[2] = test system: Vero; experiment: Cytotoxicity against African green monkey Vero cells assessed as reduction in cell viability after 72 hrs by tetrazolium dye assay; format: cell-based; details: Chlorocebus sabaeus
[3] = Selectivity index, ratio of IC50 for African green monkey Vero cells to MIC90 for Mycobacterium tuberculosis H37Rv; format: toxicity; details: read-out: Selectivity Index

SMILES	MIC90 [1] [µM]	IC50 [2] [µM]	selectivity ratio [3]
COc1ccc2c(c1)[nH]c1cc(O)c(C=O)cc12	24.3 (≈ 5.86 µg/mL)		
Cc1cc2c(cc1O)[nH]c1ccccc12	41.5 (≈ 8.19 µg/mL)		
COc1ccc2c([nH]c3cc(O)c(C=O)cc32)c1C=O	2.8 (≈ 0.754 µg/mL)	47.1	16.8
O=Cc1cc2c(cc1O)[nH]c1c(O)cccc12	3.7 (≈ 0.841 µg/mL)	> 50	> 13
COc1ccc2c(c1)[nH]c1c(CC=C(C)C)c(O)c(C=O)cc12	20.6 (≈ 6.37 µg/mL)		
COC(=O)c1cc2c(cc1OC)[nH]c1ccc(OC)cc12	24.4 (≈ 6.96 µg/mL)		
COc1ccc2[nH]c3cc(O)c(C)cc3c2c1	1.5 (≈ 0.341 µg/mL)	> 50	> 33
CC(C)=CCc1ccc2[nH]c3ccccc3c2c1	22.6 (≈ 5.32 µg/mL)		
CC(C)=CCC/C(C)=C/Cc1c(O)c(C=O)cc2c1[nH]c1ccccc12	24.1 (≈ 8.37 µg/mL)		
Cc1ccc(S(=O)(=O)Oc2cc(C)cc3c2[nH]c2cc(O)ccc23)cc1	19.7 (≈ 7.24 µg/mL)		
NNC(=O)c1ccncc1 [ISONIAZID]	0.24 (≈ 0.0329 µg/mL)	> 50	> 208
COc1ccc2[nH]c3cc(OC)c(C=O)cc3c2c1 [GLYCOZOLIDAL]	> 50		
COc1cccc2c1[nH]c1cc(O)c(C)cc12	> 50		
Cc1cc2c(cc1OCc1ccccc1)[nH]c1c(O)cccc12	11.8 (≈ 3.58 µg/mL)	33.7	2.9
COc1ccc2c([nH]c3cc(O)c(C)cc32)c1CC=C(C)C	11.9 (≈ 3.52 µg/mL)	> 50	> 4.2
COC(=O)c1cc2c(cc1O)[nH]c1ccccc12 [MUKONIDINE]	23.3 (≈ 5.62 µg/mL)		
CC(C)=CC(=O)Oc1ccc2c(c1)[nH]c1c(OS(=O)(=O)c3ccc(C)cc3)cc(C)cc12	6.2 (≈ 2.79 µg/mL)	> 50	> 8.1
COC(=O)c1cc2c([nH]c3ccccc32)c(I)c1O	24.6 (≈ 9.03 µg/mL)		
COc1cc2[nH]c3c(C=O)c(OC)ccc3c2cc1C	> 50		
C=CC(C)(C)c1ccc2[nH]c3ccccc3c2c1	11 (≈ 2.59 µg/mL)	> 50	> 4.5
COc1cc2[nH]c3ccccc3c2cc1C(=O)O	> 50		
CCCCCCCc1c(C)c(OC)c(OC)c2c1[nH]c1ccccc12	6.2 (≈ 2.1 µg/mL)	> 50	> 8.1
COC(=O)c1cc2c(cc1O)[nH]c1cc(OC)ccc12	47.8 (≈ 13 µg/mL)		
COc1ccc2c([nH]c3cc(O)c(C)cc32)c1C=O	> 50		
CO[C@H]1/C=C/O[C@@]2(C)Oc3c(C)c(O)c4c(O)c(c(/C=N/N5CCN(C)CC5)c(O)c4c3C2=O)NC(=O)/C(C)=C\C=C\[C@H](C)[C@H](O)[C@@H](C)[C@@H](O)[C@@H](C)[C@H](OC(C)=O)[C@@H]1C [RIFAMPIN]	0.02 (≈ 0.0165 µg/mL)	> 50	> 2500
COc1cccc2[nH]c3cc(OCc4ccccc4)c(C)cc3c12	9.3 (≈ 2.95 µg/mL)	> 50	> 5.4

SMILES	MIC90 [1] [µM]	IC50 [2] [µM]	selectivity ratio [3]
CC(C)=CCc1c(O)ccc2c1[nH]c1c(OS(=O)(=O)c3ccc(C)cc3)cc(C)cc12	19.4 (≈ 8.45 µg/mL)		
COc1cc2[nH]c3ccccc3c2cc1C=O [GLYCOSININE]	39.6 (≈ 8.92 µg/mL)		
COC(=O)c1cc(OC)c2[nH]c3ccc(OC)cc3c2c1	46.7 (≈ 13.3 µg/mL)		
COc1ccc2c(c1)[nH]c1c(Cc3ccccc3)c(O)c(C=O)cc12	14.4 (≈ 4.77 µg/mL)	74.1	5.1
COC(=O)c1cc2c(cc1OC)[nH]c1ccccc12 [CLAUSINE L]	> 50		
COC(=O)c1cc2c(cc1O)[nH]c1ccc(O)cc12	29.1 (≈ 7.49 µg/mL)		
O=C(O)c1cc2c(cc1O)[nH]c1ccc(O)cc12	> 50		
Cc1cc2c(cc1OCc1ccccc1)[nH]c1ccccc12	> 50		
COc1ccc2c([nH]c3c(O)cc(C)cc32)c1CC=C(C)C	23.1 (≈ 6.82 µg/mL)		
COC1=C(C)C(=O)c2[nH]c3ccccc3c2C1=O [3-METHOXY-2-METHYLCARBAZOLE-1,4-QUINONE]	4 (≈ 0.965 µg/mL)	> 50	> 12.5
COc1ccc2[nH]c3cc(OC)c(C)cc3c2c1 [GLYCOZOLIDINE]	> 50		
O=C(O)c1cc2c([nH]c3ccccc32)c(-c2c[nH]c3ccccc23)c1O	> 50		
COC(=O)c1cc2c([nH]c3ccccc32)c(-c2cn(S(=O)(=O)c3ccccc3)c3ccccc23)c1O	2.9 (≈ 1.44 µg/mL)	> 50	> 17.2
COc1ccc2[nH]c3c(OC)cc(C=O)cc3c2c1	> 50		
COc1c(C)c(C[C@@H](C)O)c2[nH]c3ccc(CC=C(C)C)cc3c2c1O [(R)-(-)-NEOCARAZOSTATIN B]	34.5 (≈ 12.2 µg/mL)		
COc1cccc2c1[nH]c1cc(O)c(C=O)cc12	29.3 (≈ 7.07 µg/mL)		
COc1ccc2c(c1)[nH]c1cc(O)c(C)cc12	> 50		
COc1cc2[nH]c3cc(O)ccc3c2cc1C=O	36.7 (≈ 8.85 µg/mL)		
COc1ccc2[nH]c3c(OC)cc(C)cc3c2c1	45.1 (≈ 10.9 µg/mL)		
CC(C)=CCC/C(C)=C/Cc1c(O)ccc2c1[nH]c1c(OS(=O)(=O)c3ccc(C)cc3)cc(C)cc12	20.5 (≈ 10.3 µg/mL)		
CC(C)=CCc1c(O)c(C=O)cc2c1[nH]c1ccccc12 [HEPTAPHYLLINE]	> 50		
CC(C)=CCc1c(O)ccc2c1[nH]c1cc(O)c(C)cc12	29.4 (≈ 8.27 µg/mL)		
COc1ccc2[nH]c3c(O)cc(C=O)cc3c2c1	6.9 (≈ 1.66 µg/mL)	> 50	> 7.2
COc1ccc2c([nH]c3c(OC)cc(C)cc32)c1OC	46.9 (≈ 12.7 µg/mL)		
CC(C)=CCc1c(O)c(C)cc2c1[nH]c1ccccc12	11.1 (≈ 2.95 µg/mL)	> 50	> 4.5
C#CC(C)(C)Oc1ccc2c(c1)[nH]c1c(OS(=O)(=O)c3ccc(C)cc3)cc(C)cc12	20.8 (≈ 9.02 µg/mL)		
